The results in this text go back to US5795907A, “Gastin and CCK receptor ligands” (James Black Foundation Limited, priority 1994, dated 1998).

One experiment has as its target T1, CCKB receptor (Mus musculus, UniProt P56481).
T1 construct: The cortex was dissected, weighed and homogenised in 40ml ice-cold buffer; tissue Charles River (supplier of the CD1 mice); host or cells: cerebral cortex membranes of male CD1 mice
T1 sequence (P56481 1-453): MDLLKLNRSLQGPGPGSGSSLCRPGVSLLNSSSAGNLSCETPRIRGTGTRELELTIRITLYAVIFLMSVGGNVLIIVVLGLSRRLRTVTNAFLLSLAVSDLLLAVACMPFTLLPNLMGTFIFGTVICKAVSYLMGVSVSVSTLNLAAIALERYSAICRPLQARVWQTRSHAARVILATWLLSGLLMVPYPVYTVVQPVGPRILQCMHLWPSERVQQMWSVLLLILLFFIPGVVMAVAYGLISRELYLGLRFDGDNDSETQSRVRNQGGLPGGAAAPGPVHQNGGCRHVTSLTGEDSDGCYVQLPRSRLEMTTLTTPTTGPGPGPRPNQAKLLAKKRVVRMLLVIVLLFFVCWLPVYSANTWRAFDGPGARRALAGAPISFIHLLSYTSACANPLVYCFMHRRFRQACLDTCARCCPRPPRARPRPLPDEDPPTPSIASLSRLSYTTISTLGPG
The experiment can be described thus: CCKB receptor radioligand binding assay in mouse cortical membranes ([125I]-CCK8S). To be noted: [125I]-CCK8S 200 pM, 150 min at 21±3°; for Ki: read-out: CCKB pKi (converted). A digest of the protocol: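 Cortical membranes from male CD1 mice in HEPES buffer (pH 7.2; NaCl, KCl, MgCl2, EDTA, bacitracin) were incubated with competing compound and [125I]-CCK8S (added as a 200 pM solution) for 150 min at 21±3°. Non-specific binding was defined with L-365,260. Bound tracer was separated by GF/B filtration and counted by gamma counting.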

A further experiment addresses T2, gastrin (Rattus norvegicus, UniProt P30553).
T2 construct: The stomach was lowered into a jacketed organ bath containing 40 ml of buffered solution; from tissue; host or cells: isolated perfused whole stomach of immature rats (ca. 21 days old)
T2 sequence (P30553 1-452): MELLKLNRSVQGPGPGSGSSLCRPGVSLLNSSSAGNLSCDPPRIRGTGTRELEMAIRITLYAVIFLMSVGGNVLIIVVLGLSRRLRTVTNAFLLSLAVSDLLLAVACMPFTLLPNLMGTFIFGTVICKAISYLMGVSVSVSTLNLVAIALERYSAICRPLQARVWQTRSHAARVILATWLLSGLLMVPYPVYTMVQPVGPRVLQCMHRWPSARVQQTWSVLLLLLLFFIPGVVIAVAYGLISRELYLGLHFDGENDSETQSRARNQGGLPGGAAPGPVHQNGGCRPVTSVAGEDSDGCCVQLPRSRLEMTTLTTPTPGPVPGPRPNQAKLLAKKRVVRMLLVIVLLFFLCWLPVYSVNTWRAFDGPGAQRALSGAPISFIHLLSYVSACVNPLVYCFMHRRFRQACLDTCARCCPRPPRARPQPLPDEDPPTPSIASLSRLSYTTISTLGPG
The experiment can be described thus: gastrin antagonist activity in an immature rat stomach assay (pentagastrin-stimulated acid secretion). To be noted: cumulative pentagastrin dose-response curves after 60 min with drug; for Kb: read-out: Gastrin pKB (converted). A digest of the protocol: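 Isolated lumen-perfused immature rat stomach (33-50 g, ca. 21 days) in 37° organ bath with 3×10^-8 M 5-methylfurmethide; acid secretion read by pH electrode in perfusate. Compound added to serosal bath after 120 min stabilisation; cumulative pentagastrin dose-response curves begun 60 min later and analysed by the Black et al. method.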

The target of the next experiment is T3, CCKA (Cavia porcellus, UniProt Q63931).
T3 construct: The pancreatata were homogenised in 40 ml ice-cold HEPES buffer using a polytron; from tissue; host or cells: pancreas membranes of male Dunkin Hartley guinea-pigs
T3 sequence (Q63931 1-430): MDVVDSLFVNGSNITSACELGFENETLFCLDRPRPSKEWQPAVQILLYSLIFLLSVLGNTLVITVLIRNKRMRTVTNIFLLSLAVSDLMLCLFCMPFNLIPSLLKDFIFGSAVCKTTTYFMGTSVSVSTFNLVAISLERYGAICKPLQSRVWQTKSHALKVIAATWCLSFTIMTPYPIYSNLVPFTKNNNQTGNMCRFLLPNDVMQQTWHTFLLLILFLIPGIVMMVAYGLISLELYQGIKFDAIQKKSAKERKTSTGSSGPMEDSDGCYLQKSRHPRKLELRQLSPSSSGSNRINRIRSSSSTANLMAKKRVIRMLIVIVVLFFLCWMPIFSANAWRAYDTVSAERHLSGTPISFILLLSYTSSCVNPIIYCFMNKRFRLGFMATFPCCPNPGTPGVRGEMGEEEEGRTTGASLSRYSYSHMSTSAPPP
The experiment can be described thus: CCKA radioligand binding assay in guinea-pig pancreas membranes ([125I]-CCK8(S)). To be noted: PD134,308 present, 150 minutes at 21±3°; for Ki: read-out: CCKA pKi (converted). A digest of the protocol: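 Male guinea-pig pancreas membranes (1 mg/ml wet tissue in HEPES pH 7.2, suspension containing 0.375 μM PD134,308) were incubated 150 min at 21±3° with [125I]-CCK8(S) ([…] added solution) and competitor. Non-specific binding used 100 nM L-364,718 (added solution). Bound radioligand was measured by GF/B filtration and gamma counting.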

Molecules are shown by their SMILES.

With `O=C(O)c1cc(NC(=O)[C@H](Cc2ccccc2)NC(=O)c2cc3ccccc3cc2C(=O)NCC23CC4CC(CC(C4)C2)C3)cc(C(=O)O)c1` [Example 15, 2-(1S-(3,5-dicarboxyphenylaminocarbonyl)-2-phenylethylaminocarbonyl)-3-(1-adamantanemethylaminocarbonyl)-naphthalene], the “CCKB pKi” value at CCKB receptor was determined as 7.9. Besides, the “Gastrin pKB” value at gastrin is recorded as 8.2. Besides, at CCKA, the “CCKA pKi” value came to 6.1.

As to `C[C@@H](NC(=O)C[C@@H]1CCCN1C(=O)c1cc2ccccc2cc1C(=O)NCC12CC3CC(CC(C3)C1)C2)C(=O)O` [Example 16, 2-(2S-(1R-carboxyethylaminocarbonylmethyl)-pyrrolidinocarbonyl)-3-(1-adamantanemethylaminocarbonyl)-naphthalene], at CCKB receptor, the “CCKB pKi” value came to 5.6. Also, on gastrin, the “Gastrin pKB” value is 6.2. For the same compound, at CCKA, the “CCKA pKi” value is 5.5.

As to `O=C(O)c1cc(NC(=O)[C@H](Cc2ccccc2)NC(=O)c2cc3cc[nH]c3cc2C(=O)NCC23CC4CC(CC(C4)C2)C3)cc(C(=O)O)c1` [Example 24, 5-(1S-(3,5-dicarboxyphenylaminocarbonyl)-2-phenylethylaminocarbonyl)-6-(1-adamantanemethylaminocarbonyl)-indole], the Ki at CCKB receptor was 1.26 nM; at CCKA it was 2000 nM. In addition, the Kb at gastrin is 0.316 nM.

Take `O=C(O)c1cc(NC(=O)[C@H](Cc2ccccc2)NC(=O)c2cc3[nH]ccc3cc2C(=O)NCC23CC4CC(CC(C4)C2)C3)cc(C(=O)O)c1` [Example 26, 6-(1S-(3,5-dicarboxyphenylaminocarbonyl)-2-phenylethylaminocarbonyl)-5-(1-adamantanemethylaminocarbonyl)-indole]: the results for the Ki at CCKB receptor and at CCKA were 12.6 nM and 3160 nM, respectively. Further, on gastrin, the Kb is 0.501 nM.

On to `CC(C)(C)C(=O)OCOC(=O)c1cc(NC(=O)[C@H](Cc2ccccc2)NC(=O)c2cc3cc[nH]c3cc2C(=O)NCC23CC4CC(CC(C4)C2)C3)cc(C(=O)OCOC(=O)C(C)(C)C)c1` [Example 33, 5-(1S-(3,5-dipivaloyloxymethyloxycarbonylphenylaminocarbonyl)-2-phenylethylaminocarbonyl)-6-(1-adamantanemethylaminocarbonyl)-indole], for which the Ki was 2510 nM at CCKB receptor and 6310 nM at CCKA. Further, on gastrin, the Kb was 20 nM.

In the case of `O=C(NO)c1cc(NC(=O)[C@H](Cc2ccccc2)NC(=O)c2cc3cc[nH]c3cc2C(=O)NCC23CC4CC(CC(C4)C2)C3)cc(C(=O)NO)c1` [Example 34, 5-(1S-(3,5-dihydroxyaminocarbonylphenylaminocarbonyl)-2-phenylethylaminocarbonyl)-6-(1-adamantanemethylaminocarbonyl)-indole], the figures for the Ki at CCKB receptor and on CCKA were 7.94 nM and 794 nM, respectively. In addition, at gastrin, the Kb is 2 nM.

Turning to `Cn1ccc2cc(C(=O)NCC34CC5CC(CC(C5)C3)C4)c(C(=O)N[C@@H](Cc3ccccc3)C(=O)Nc3cc(C(=O)O)cc(C(=O)O)c3)cc21` [Example 37, 6-(1S-(3,5-dicarboxyphenylaminocarbonyl)-2-phenylethylaminocarbonyl)-5-(1-adamantanemethylaminocarbonyl)-N-methyl-indole], the Ki at CCKB receptor was 3.98 nM; at CCKA, 2510 nM. Besides, the Kb on gastrin is 3.98 nM.

Consider `CC(=O)n1ccc2cc(C(=O)N[C@@H](Cc3ccccc3)C(=O)Nc3cc(C(=O)O)cc(C(=O)O)c3)c(C(=O)NCC34CC5CC(CC(C5)C3)C4)cc21` [Example 44, 5-(1S-(3,5-dicarboxyphenylaminocarbonyl)-2-phenylethylaminocarbonyl)-6-(1-adamantanemethylaminocarbonyl)-N-acetyl-indole], for which the “CCKB pKi” value at CCKB receptor was 8.7. The “Gastrin pKB” value on gastrin is reported as 8.7. The “CCKA pKi” value at CCKA worked out at 5.6.

For `C[C@H](NC(=O)c1cc2cc[nH]c2cc1C(=O)NCC12CC3CC(CC(C3)C1)C2)C(=O)Nc1cc(C(=O)O)cc(C(=O)O)c1` [Example 47, 5-(1S-(3,5-dicarboxyphenylaminocarbonyl)-ethylaminocarbonyl)-6-(1-adamantanemethylaminocarbonyl)-indole], the Ki at CCKB receptor was 158 nM; at CCKA, 6310 nM. Also, the Kb at gastrin was 5.01 nM.

`C[C@H](NC(=O)c1cc2[nH]ccc2cc1C(=O)NCC12CC3CC(CC(C3)C1)C2)C(=O)Nc1cc(C(=O)O)cc(C(=O)O)c1` [Example 48, 6-(1S-(3,5-dicarboxyphenylaminocarbonyl)-ethylaminocarbonyl)-5-(1-adamantanemethylaminocarbonyl)-indole]: the Ki on CCKB receptor was 631 nM; on CCKA, 3160 nM. The Kb at gastrin was 100 nM.

`CC(=O)Oc1cc(OC(C)=O)c2cc(C(=O)N[C@@H](Cc3ccccc3)C(=O)Nc3cc(C(=O)O)cc(C(=O)O)c3)c(C(=O)NCC34CC5CC(CC(C5)C3)C4)cc2c1` [Example 53, 3-(1S-(3,5-dicarboxyphenylaminocarbonyl)-2-phenylethylaminocarbonyl)-2-(1-adamantanemethylaminocarbonyl)-5,7-diacetoxy-naphthalene]: the “CCKB pKi” value on CCKB receptor amounted to 8.1. In addition, the “Gastrin pKB” value on gastrin was determined as 7.9. Besides, the “CCKA pKi” value at CCKA was determined as 6.1.

Turning to `CC(=O)Oc1cc(OC(C)=O)c2cc(C(=O)NCC34CC5CC(CC(C5)C3)C4)c(C(=O)N[C@@H](Cc3ccccc3)C(=O)Nc3cc(C(=O)O)cc(C(=O)O)c3)cc2c1` [Example 54, 2-(1S-(3,5-dicarboxyphenylaminocarbonyl)-2-phenylethylaminocarbonyl)-3-(1-adamantanemethylaminocarbonyl)-5,7-diacetoxy-naphthalene], the “CCKB pKi” value at CCKB receptor amounted to 8.1. Moreover, the “Gastrin pKB” value at gastrin was 8.1. Moreover, at CCKA, the “CCKA pKi” value was found to be 5.9.

As to `O=C(O)c1cc(NC(=O)[C@H](Cc2ccccc2)NC(=O)C2Cc3ccccc3CN2C(=O)NCC23CC4CC(CC(C4)C2)C3)cc(C(=O)O)c1` (stereo partly drawn) [Example 57, 3-(1S-(3,5-dicarboxyphenylaminocarbonyl)-2-phenylethylaminocarbonyl)-2-(1-adamantanemethylaminocarbonyl)-1,2,3,4-tetrahydroisoquinoline], the results for the Ki at CCKB receptor and on CCKA were 20 nM and 2000 nM, respectively. The Kb at gastrin was 20 nM.

Turning to `O=C(O)c1cc(NC(=O)[C@H](Cc2ccc(O)cc2)NC(=O)c2cc3[nH]cnc3cc2C(=O)NCC23CC4CC(CC(C4)C2)C3)cc(C(=O)O)c1` [Example 60, 5-(1S-(3,5-dicarboxyphenylaminocarbonyl)-2-(4-hydroxyphenyl)ethylaminocarbonyl)-6-(1-adamantanemethyaminocarbonyl)-benzimidazole], the “CCKB pKi” value on CCKB receptor was determined as 7.8. Further, the Kb at gastrin was 7.94 nM. The Ki at CCKA was 2510 nM.
